Consider 21 compounds from PubChem BioAssay (NCI).

Experiment in all cases: NCI-60 cell line screen, 48 h
Test [1] has as its system IGROV1 ovarian.
The subject of test [2] is NCI-H460 lung.
The test system of test [3] is SR leukemia.
Test [4] has as its system EKVX NSCLC.
For test [5], the system named is SK-MEL-2 melanoma.
Test [6] has as its system CAKI-1 renal.
In test [7] the test system is CCRF-CEM leukemia.
Test [8] relates to K-562 leukemia.
The test system of test [9] is SF-539 CNS.
The test system of test [10] is MCF7 breast.

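48-hour exposure; five concentrations; linearly interpolated endpoints. GI50 is the concentration that inhibits growth by half. TGI marks complete inhibition of growth.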 Bounds are passed on as bounds.

With `O=C(CCCNC(=O)OCc1ccccc1)OCc1ccc2c(c1)C(=O)c1ccccc1C2=O`, the TGI in test [1] was 99 µM; in test [2] it was more than 100 µM; in test [3], more than 100 µM; in test [4], more than 100 µM; in test [5], more than 100 µM; in test [6], more than 89.6 µM. The values for the TGI in test [7], in [8] and in test [9] were more than 100 µM, more than 100 µM and 57.8 µM, respectively.
As for `CC1CCCN(CC(O)CN2CCCc3ccccc32)C1` (stereo unspecified), the TGI in test [1], in [3], in [4], in test [5], in test [10] and in test [6] was more than 100 µM in each case. Moreover, the TGI in test [7] and in [8] was more than 100 µM each time.
Regarding `CC(C)CC(CNC(Cc1ccc(Cl)cc1)C(N)=O)NC(=O)C(Cc1cnc[nH]1)NC(=O)CNC(=O)C(NC(=O)C(C)NC(=O)C(Cc1c[nH]c2ccccc12)NC(=O)C(CCC(=O)O)NC(=O)C(N)Cc1ccccc1)C(C)C` (stereo unspecified), the TGI in test [1], in [2], in test [3], in test [4], in test [5] and in test [6] was more than 133 µM in each case. Further, the TGI in test [7], in test [8] and in [9] was more than 133 µM throughout.
As for `Cc1[nH]nc2c1N=C(c1ccccc1F)c1cc(C#N)ccc1N2`, the GI50 in [1] is 5.4 µM; in test [2], 0.106 µM; in test [3], 0.0641 µM; in test [5] it was 2.39 µM; in test [10], 0.119 µM; in test [6], 0.051 µM. Besides, the results for the GI50 in test [7], in [8] and in [9] were 0.113 µM, 0.11 µM and 0.134 µM, respectively. The TGI in test [1] was 16.2 µM; in test [2] it was 15.6 µM; in test [3], more than 18 µM; in test [5], 8.81 µM; in test [10], more than 16.8 µM; in test [6], 5.66 µM. Moreover, the TGI in test [7] is more than 13.6 µM; in test [8], more than 25 µM; in test [9], 4.93 µM.
For `CC1=Nc2c([nH]c(=S)[nH]c2=O)NC(c2ccc(Cl)c(Cl)c2)C1` (stereo unspecified), the TGI in test [1] is 40.8 µM; in test [2], more than 100 µM; in [3], more than 100 µM; in test [4], more than 68.3 µM; in test [5], more than 100 µM; in test [6], more than 100 µM. Also, the results for the TGI in [7], in test [8] and in test [9] were more than 100 µM, more than 100 µM and 46.5 µM, respectively.
On to `CN(C)c1nc(N(C)C)n2nc(-c3ccccc3[N+](=O)[O-])nc2n1`, for which the TGI in test [1], in test [2], in test [3], in [4], in test [5] and in test [6] was more than 100 µM each time. For the same compound, the TGI in test [7], in test [8] and in test [9] was more than 100 µM throughout.
Consider `CCOC(=O)N1C/C(=C/c2ccc(OC)cc2)C(=O)/C(=C/c2ccc(OC)cc2)C1`, for which the GI50 was 2.44 µM in test [1]; 3.13 µM in test [2]; 0.579 µM in test [3]; 13.5 µM in [5]; 0.363 µM in test [10]; 4.67 µM in test [6]. The GI50 was 2.85 µM in test [7], 1.72 µM in test [8] and 1.81 µM in test [9]. Further, the TGI in test [1] was more than 21.2 µM; in test [2] it was more than 100 µM; in test [3], more than 32.7 µM; in test [5], more than 56.3 µM; in test [10] it was 3.2 µM; in test [6], more than 70.1 µM. Moreover, the values for the TGI in [7], in test [8] and in test [9] were more than 100 µM, more than 100 µM and 3.7 µM, respectively.
`OCC(O)COc1c(Cl)ccc(Cl)c1Cl` (stereo unspecified): the TGI in test [1], in test [2], in test [3], in test [4], in [5] and in [6] was more than 100 µM throughout. For the same compound, the TGI in test [7], in test [8] and in test [9] was more than 100 µM in each case.
Take `COc1cc(OC)c(OC)cc1/C=C1\C=Cc2ccccc21`: the TGI in [1] was more than 100 µM; in [2], 38 µM; in test [3], more than 100 µM; in test [4] it was more than 100 µM; in test [10], more than 100 µM; in test [7], more than 100 µM. Besides, the TGI in [8] is more than 100 µM; in test [9] it was 35.8 µM.
As for `COC(=O)[C@@H](Cc1c[nH]c2ccccc12)NC(=O)/C=C/c1ccccc1`, the GI50 in test [1] is 7.07 µM; in test [2] it was 3.26 µM; in test [3], 2.98 µM; in [5], 6.63 µM; in test [10], 3.2 µM; in test [6], 3.42 µM. The results for the GI50 in test [7], in test [8] and in test [9] were 3.45 µM, 2.74 µM and 1.95 µM, respectively. Also, the TGI in test [1] was more than 100 µM; in test [2], 15.1 µM; in [3], 11.6 µM; in test [5] it was more than 100 µM; in test [10], more than 100 µM; in [6], more than 100 µM. Further, the TGI in [7] was more than 100 µM; in test [8] it was more than 100 µM; in [9], 5.29 µM.
`C[C@H]1COC2(c3ccccc3)CCC(=O)N12` (stereo partly specified): the TGI in [1], in [2], in test [3], in [4], in [5] and in test [6] was more than 100 µM each time. In addition, the TGI in [7], in [8] and in [9] was more than 100 µM each time.
Consider `COc1ccc(C2C(c3ccccc3)C(=O)N2c2cc(OC)c(OC)c(OC)c2)cc1I` (stereo unspecified), for which the GI50 was 0.58 µM in test [1]; 0.337 µM in test [2]; 0.286 µM in test [3]; 0.658 µM in test [4]; 0.572 µM in test [5]; 0.336 µM in test [10]. Further, the GI50 in test [7] was 0.365 µM; in test [8] it was 0.339 µM; in test [9], 0.234 µM. The TGI in test [1], in [2], in [3], in [4], in test [5] and in [10] was more than 100 µM each time. For the same compound, the TGI in test [7] is more than 100 µM; in test [8], more than 100 µM; in test [9], 0.657 µM.
For the compound `O=C(CCc1ccccc1)On1nnc2ccccc2c1=O`, the TGI in test [1], in test [2], in test [3], in test [4], in [5] and in test [6] was more than 100 µM throughout. Besides, the TGI in test [7], in test [8] and in test [9] was more than 100 µM throughout.
On to `COc1cc(-c2nn(C(=O)NS(=O)(=O)c3ccc(C)cc3)cc2-c2ccncc2)ccc1Cl`, for which the GI50 was 5.1 µM in [1]; 13.3 µM in test [2]; 5.1 µM in test [3]; 2.78 µM in test [4]; 4.65 µM in test [5]; 5.76 µM in test [10]. The values for the GI50 in [6], in test [7] and in test [9] were 3.15 µM, 14.1 µM and 3.61 µM, respectively. In addition, the TGI was more than 100 µM in test [1]; 38.5 µM in [2]; 40.9 µM in test [3]; 27.6 µM in test [4]; 15.4 µM in [5]; 26.2 µM in [10]. The TGI was 26.9 µM in [6], more than 100 µM in test [7] and 14.7 µM in test [9].
For `COc1ccc(/C=C/c2nc(=S)[nH][nH]2)cc1`, the TGI in [1], in test [2], in test [3], in test [4], in test [5] and in test [6] was more than 100 µM each time. Besides, the TGI in [7], in [8] and in test [9] was more than 100 µM in each case.
`CCOC(=O)c1c(C)n(CC(C)C)c2c1cc1oc(=O)c(=O)n3cnc2c13`: the GI50 in test [1] was 15.1 µM; in [2], 16.7 µM; in test [3] it was 10.4 µM; in [4], 17.4 µM; in [5] it was 38.7 µM; in [10], 12.5 µM. Moreover, the GI50 in test [6] was 11.4 µM; in test [8], 16.1 µM; in test [9] it was 15.6 µM. In addition, the TGI in test [1] is more than 50 µM; in test [2], more than 50 µM; in [3], more than 50 µM; in test [4], more than 50 µM; in test [5], more than 50 µM; in test [10], 45.3 µM. Further, the TGI was 29.2 µM in test [6], more than 50 µM in test [8] and 42 µM in [9].
Turning to `COc1ccccc1CNC(=O)C1c2ccccc2C(=O)N(CC(C)C)C1c1cccs1` (stereo unspecified), the GI50 in test [1] was 22.4 µM; in [2], 18.1 µM; in test [3] it was 13.5 µM; in test [5], 16.6 µM; in test [10], 27.2 µM; in [6], 18.1 µM. The GI50 in test [8] is 20.3 µM; in test [9], 16.9 µM. Also, the TGI was more than 100 µM in test [1]; 46.9 µM in test [2]; 74.7 µM in [3]; 36.9 µM in test [5]; more than 100 µM in [10]; 78.8 µM in test [6]. Also, the TGI in test [8] was more than 100 µM; in test [9], 33.8 µM.
For the compound `CN1CCN(Cc2ccc(NC(=O)c3[nH]ncc3Nc3ncnc4sccc34)cc2)CC1`, the GI50 was 0.396 µM in test [1]; 0.284 µM in test [2]; 0.219 µM in [3]; 0.425 µM in test [4]; 0.368 µM in [5]; 0.126 µM in test [10]. The figures for the GI50 in [6], in test [8] and in test [9] were 0.563 µM, 0.235 µM and 0.127 µM, respectively. The TGI is more than 100 µM in test [1]; more than 100 µM in test [2]; 0.73 µM in test [3]; 3.53 µM in test [4]; 2.26 µM in test [5]; more than 100 µM in test [10]. For the same compound, the TGI in test [6] is more than 100 µM; in [8], more than 100 µM; in [9], 1.56 µM.
As for `O=C(O)C(Br)C(Br)c1ccccc1[N+](=O)[O-]` (stereo unspecified), the TGI in [1], in test [2], in test [3], in test [4], in [5] and in test [10] was more than 100 µM throughout. Besides, the TGI in test [6], in [8] and in test [9] was more than 100 µM throughout.
In the case of `Oc1ccc(Br)cc1/C=N/NC(=S)NC12CC3CC(CC(C3)C1)C2`, the GI50 in test [1] was 1.81 µM; in [2], 0.645 µM; in test [3], 0.682 µM; in [5], 2.09 µM; in test [10] it was 1.86 µM; in [6], 2.67 µM. The figures for the GI50 in [7], in [8] and in test [9] were 0.897 µM, 1.87 µM and 3.19 µM, respectively. The TGI in test [1] stood at 5.89 µM; in test [2] it was 2.17 µM; in test [3] it was 3.47 µM; in test [5], 4.59 µM; in test [10], 5.92 µM; in [6], 8.59 µM. In addition, the TGI amounted to 8.14 µM in test [7], 5.3 µM in [8] and 11.3 µM in [9].
On to `Cc1c(C2Cc3ccccc3N2C(=O)/C=C\C(=O)O)c2ccccc2n1C` (stereo unspecified), for which the TGI in test [1] was 70.7 µM; in test [2] it was more than 100 µM; in [3] it was 85.8 µM; in test [4], 72.9 µM; in test [5] it was 32 µM; in [6], 78.7 µM. Moreover, the TGI in test [7] was more than 100 µM; in test [8] it was more than 100 µM; in test [9] it was 42.6 µM.
